# Reference: patent publication US6124269A, “2-Halo-6-O-substituted ketolide derivatives” (priority 1998, dated 2000)
# How the values were obtained:
# Format in all cases: cell-based
# [1] = tested on: Staphylococcus aureus ATCC 6538P; assay: In vitro agar dilution MIC, organism code AA; settings: Table 1B, unit assumed
# Method in brief: (§1)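 Twelve-plate agar dilution series in Brain Heart Infusion agar. Inoculum diluted 1:100, or 1:10 for streptococci and other slow growers. Read after 20 to 24 hours at 35-37° C.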
# [2] = tested on: Staphylococcus aureus A5177; assay: In vitro agar dilution MIC, organism code BB; settings: Table 1B, in µg/mL (unit assumed)
# Method in brief: as §1
# [3] = tested on: Staphylococcus aureus A-5278; assay: In vitro agar dilution MIC, organism code CC; settings: Table 1B, unit assumed
# Method in brief: as §1
# [4] = tested on: Staphylococcus aureus CMX 642A; assay: In vitro agar dilution MIC, organism code DD; settings: Table 1B, unit assumed
# Protocol: (§2) Representative compounds of the present invention were assayed in vitro for antibacterial activity as follows: Twelve petri dishes containing successive aqueous dilutions of the test compound mixed with 10 mL of sterilized Brain Heart Infusion (BHI) agar (Difco 0418-01-5) were prepared. Each plate was inoculated with 1:100 (or 1:10 for slow-growing strains, such as Micrococcus and Streptococcus) dilutions of up to 32 different microorganisms, using a Steers replicator block. The inoculated plates were incubated at 35-37° C. for 20 to 24 hours. In addition, a control plate, using BHI agar containing no test compound, was prepared and incubated at the beginning and end of each test.
# (§3) An additional plate containing a compound having known susceptibility patterns for the organisms being tested and belonging to the same antibiotic class as the test compound was also prepared and incubated as a further control, as well as to provide test-to-test comparability.
# (§4) After incubation, each plate was visually inspected. The minimum inhibitory concentration (MIC) was defined as the lowest concentration of drug yielding no growth, a slight haze, or sparsely isolated colonies on the inoculum spot as compared to the growth control.
# [5] = tested on: Staphylococcus aureus NCTC10649M; assay: In vitro agar dilution MIC, organism code EE; settings: Table 1B, unit assumed
# Protocol: as §2, §3, §4
# [6] = tested on: Staphylococcus aureus CMX 553; assay: In vitro agar dilution MIC, organism code FF; settings: Table 1B, unit assumed
# Protocol: as §2, §3, §4
# [7] = tested on: Staphylococcus aureus 1775; assay: In vitro agar dilution MIC, organism code GG; settings: Table 1B, unit assumed
# Protocol: as §2, §3, §4
# [8] = tested on: Staphylococcus epidermidis 3519; assay: In vitro agar dilution MIC, organism code HH; settings: Table 1B, in µg/mL (unit assumed)
# Protocol: as §2, §3, §4
# [9] = tested on: Enterococcus faecium ATCC 8043; assay: In vitro agar dilution MIC, organism code II; settings: Table 1B, unit assumed
# Protocol: as §2, §3, §4
# [10] = tested on: Streptococcus bovis A-5169; assay: In vitro agar dilution MIC, organism code JJ; settings: Table 1B, unit assumed
# Protocol: as §2, §3, §4
# [11] = tested on: Streptococcus agalactiae CMX 508; assay: In vitro agar dilution MIC, organism code KK; settings: Table 1B, unit assumed
# Protocol: as §2, §3, §4
# [12] = tested on: Streptococcus pyogenes EES61; assay: In vitro agar dilution MIC, organism code LL; settings: unit assumed
# Method in brief: as §1
# [13] = tested on: Streptococcus pyogenes 930; assay: In vitro agar dilution MIC, organism code MM; settings: unit assumed
# Method in brief: as §1
# [14] = tested on: Streptococcus pyogenes PIU 2548; assay: In vitro agar dilution MIC, organism code NN; settings: unit assumed
# Method in brief: as §1
# [15] = tested on: Micrococcus luteus ATCC 9341; assay: In vitro agar dilution MIC, organism code OO; settings: Table 1B, unit assumed
# Protocol: as §2, §3, §4
# [16] = tested on: Micrococcus luteus ATCC 4698; assay: In vitro agar dilution MIC, organism code PP; settings: Table 1B, in µg/mL (unit assumed)
# Protocol: as §2, §3, §4
# [17] = tested on: Escherichia coli JUHL; assay: In vitro agar dilution MIC, organism code QQ; settings: Table 1B, in µg/mL (unit assumed)
# Protocol: as §2, §3, §4
# [18] = tested on: Escherichia coli SS; assay: In vitro agar dilution MIC, organism code RR; settings: Table 1B, in µg/mL (unit assumed)
# Protocol: as §2, §3, §4
# [19] = tested on: Escherichia coli DC-2; assay: In vitro agar dilution MIC, organism code SS; settings: Table 1B, unit assumed
# Protocol: as §2, §3, §4
# [20] = tested on: Candida albicans CCH 442; assay: In vitro agar dilution MIC, organism code TT; settings: Table 1B, unit assumed
# Protocol: as §2, §3, §4
# [21] = tested on: Mycobacterium smegmatis ATCC 114; assay: In vitro agar dilution MIC, organism code UU; settings: Table 1B, in µg/mL (unit assumed)
# Protocol: as §2, §3, §4
# [22] = tested on: Nocardia asteroides ATCC 9970; assay: In vitro agar dilution MIC, organism code VV; settings: Table 1B, in µg/mL (unit assumed)
# Protocol: as §2
# An additional plate containing a compound having known susceptibility patterns for the organisms being tested and belonging to the same antibiotic class as the test compound was also prepared and incubated as a further control, as well as to provide test-to-test comparability. Erythromycin A was used for this purpose.
# as §4
# [23] = tested on: Haemophilis influenzae DILL AMP R; assay: In vitro agar dilution MIC, organism code WW; settings: unit assumed
# Method in brief: as §1
# [24] = tested on: Streptococcus pneumoniae ATCC 6303; assay: In vitro agar dilution MIC, organism code XX; settings: unit assumed
# Method in brief: as §1
# [25] = tested on: Streptococcus pneumoniae GYR 1171; assay: In vitro agar dilution MIC, organism code YY; settings: Table 1B, unit assumed
# Protocol: as §2, §3, §4
# [26] = tested on: Streptococcus pneumoniae 5979; assay: In vitro agar dilution MIC, organism code ZZ; settings: unit assumed
# Method in brief: as §1
# [27] = tested on: Streptococcus pneumoniae 5649; assay: In vitro agar dilution MIC, organism code ZZA; settings: unit assumed
# Method in brief: as §1
SMILES,MIC [1] [µg/mL],MIC [2],MIC [3] [µg/mL],MIC [4] [µg/mL],MIC [5] [µg/mL],MIC [6] [µg/mL],MIC [7] [µg/mL],MIC [8],MIC [9] [µg/mL],MIC [10] [µg/mL],MIC [11] [µg/mL],MIC ([12]; Table 1B) [µg/mL],MIC ([13]; Table 1B) [µg/mL],MIC ([14]; Table 1B) [µg/mL],MIC [15] [µg/mL],MIC [16],MIC [17],MIC [18],MIC [19] [µg/mL],MIC [20] [µg/mL],further results
CC[C@H]1OC(=O)[C@@](C)(F)C(=O)[C@H](C)[C@@H](O[C@@H]2O[C@H](C)C[C@H](N(C)C)[C@H]2O)[C@](C)(OC/C=C/c2cnc3ccc(N)cc3c2)C[C@@H](C)C(=O)[C@H](C)[C@H]2NC(=O)O[C@@]21C [Example 9],0.02,0.02,> 100,0.02,0.05,0.02,> 100,0.02,0.01,≤ 0.005,≤ 0.005,≤ 0.005,0.2,0.1,≤ 0.005,0.02,25,0.2,25,> 100,MIC [21]: 0.78; MIC [22]: < 0.005; MIC ([23]; Table 1B): 2 µg/mL; MIC ([24]; Table 1B): 0.015 µg/mL; MIC [25]: 0.015 µg/mL; MIC ([26]; Table 1B): 0.25 µg/mL; MIC ([27]; Table 1B): 1 µg/mL
CC[C@H]1OC(=O)[C@@](C)(F)C(=O)[C@H](C)[C@@H](O[C@@H]2O[C@H](C)C[C@H](N(C)C)[C@H]2O)[C@](C)(OC/C=C/c2ccc3ncccc3c2)C[C@@H](C)C(=O)[C@H](C)[C@H]2NC(=O)O[C@@]21C [Example 10],0.1,0.1,> 100,0.1,0.1,0.1,> 100,0.2,0.05,0.01,0.05,0.02,0.39,0.1,0.02,0.1,100,0.1,100,> 100,MIC [21]: 0.1; MIC [22]: 0.01; MIC ([23]; Table 1B): 2 µg/mL; MIC ([24]; Table 1B): 0.015 µg/mL; MIC [25]: 0.015 µg/mL; MIC ([26]; Table 1B): 0.25 µg/mL; MIC ([27]; Table 1B): 0.25 µg/mL
CC[C@H]1OC(=O)[C@@](C)(F)C(=O)[C@H](C)[C@@H](O[C@@H]2O[C@H](C)C[C@H](N(C)C)[C@H]2O)[C@](C)(OC/C=C/c2cnc3ncccc3c2)C[C@@H](C)C(=O)[C@H](C)[C@H]2NC(=O)O[C@@]21C [Example 11],0.05,0.05,> 100,0.05,0.05,0.05,100,0.05,0.05,0.01,0.01,0.39,0.1,0.01,0.01,0.05,25,0.2,12.5,> 100,MIC [21]: 0.78; MIC [22]: 0.01; MIC ([23]; Table 1B): 2 µg/mL; MIC ([24]; Table 1B): ≤ 0.004 µg/mL; MIC [25]: ≤ 0.004 µg/mL; MIC ([26]; Table 1B): 0.125 µg/mL; MIC ([27]; Table 1B): 0.25 µg/mL
CC[C@H]1OC(=O)[C@@](C)(F)C(=O)[C@H](C)[C@@H](O[C@@H]2O[C@H](C)C[C@H](N(C)C)[C@H]2O)[C@](C)(OC/C=C/c2ccc3nccnc3c2)C[C@@H](C)C(=O)[C@H](C)[C@H]2NC(=O)O[C@@]21C [Example 12],0.05,0.05,> 100,0.05,0.05,0.05,> 100,0.05,0.01,≤ 0.005,0.01,0.01,0.2,0.05,≤ 0.005,0.05,12.5,0.1,12.5,> 100,MIC ([12]; Table 1D): ≤ 0.04 µg/mL; MIC ([13]; Table 1D): 0.5 µg/mL; MIC ([14]; Table 1D): 0.125 µg/mL; MIC [21]: 0.2; MIC [22]: ≤ 0.005; MIC ([23]; Table 1B): 2 µg/mL; MIC ([23]; Table 1D): 2 µg/mL; MIC ([24]; Table 1B): ≤ 0.004 µg/mL; MIC ([24]; Table 1D): ≤ 0.004 µg/mL; MIC [25]: ≤ 0.004 µg/mL; MIC ([26]; Table 1B): 1 µg/mL; MIC ([26]; Table 1D): 1 µg/mL; MIC ([27]; Table 1B): 0.125 µg/mL; MIC ([27]; Table 1D): 0.125 µg/mL
CC[C@H]1OC(=O)[C@@](C)(F)C(=O)[C@H](C)[C@@H](O[C@@H]2O[C@H](C)C[C@H](N(C)C)[C@H]2O)[C@](C)(OC/C=C/c2cnc3ccc(N(C)C)cc3c2)C[C@@H](C)C(=O)[C@H](C)[C@H]2NC(=O)O[C@@]21C [Example 13],0.2,0.2,> 100,0.2,0.2,0.2,> 100,0.2,0.1,0.02,0.02,0.05,0.78,0.2,0.02,0.2,50,0.78,100,> 100,MIC [21]: 0.78; MIC [22]: 0.05; MIC ([23]; Table 1B): 8 µg/mL; MIC ([24]; Table 1B): 0.06 µg/mL; MIC [25]: 0.06 µg/mL; MIC ([26]; Table 1B): 1 µg/mL; MIC ([27]; Table 1B): 0.5 µg/mL
